{"source": "patent US11904038B2", "about": "(INDUSTRY-ACADEMIC COOPERATION FOUNDATION, YONSEI UNIVERSITY, priority 2017, dated 2024)", "key": {"IGF-1 [1]": {"system": "IGF-1", "experiment": "human IGF-1 ELISA of culture solutions", "format": "cell-based", "conditions": "phellandrene 20 μM, 24 hours, vs DMSO, (B) of FIG. 3", "procedure": "(§1) DMSO was used as a negative control group. The phellandrene-treated culture solutions were collected after 24 hours, and experiments were conducted using human VEGF ELISA Kit (Enzo Life Sciences, NY, USA), human IGF-1 ELISA kit (Enzo Life Sciences, NY, USA), and cAMP complete ELISA kit (Enzo Life Sciences, NY, USA), respectively, according to the manufacturers' protocol."}, "VEGF [2]": {"system": "VEGF", "experiment": "human VEGF ELISA of culture solutions", "format": "cell-based", "conditions": "phellandrene 20 μM, 24 hours, vs DMSO, (A) of FIG. 3", "procedure": "as §1"}, "Cyc-D": {"system": "Cyc-D", "experiment": "RT-PCR mRNA expression of Cyc-D", "format": "cell-based, human", "conditions": "phellandrene 20 μM, 24 hours, FIG. 6", "procedure": "(§2) 24 hours after the treatment, the cells were collected and total RNA was extracted with Trizol Reagent (Gibco BRL, USA). The total RNA was quantified by absorbance measurement at 260 nm.\n(§3) After isolation of RNA, cDNA was synthesized by performing reverse transcription using oligo dT primers and SuperScript reverse transcriptase (GIBCOBRL, Gaithersburg, MD, USA). PCR was performed using, as a template, cDNA obtained through reverse transcription and using, as primers, 5′ and 3′ flanking sequences of the gene's cDNA to be amplified. Here, required primers were obtained by making a request for synthesis with a company specializing in primer manufacturing (BIONEER CORPORATION, Korea) and used. To a mixture obtained by mixing of 5 μl of 10× reaction buffer [100 mM KCL, 20 mM Tris-HCl (pH 8.0), 2.5 mM MgCl2], 4 μl of 10 mM dNTP, and 1 μl each of 0.2 μM sense and antisense primers, were added 2 μl of the completed cDNA reaction mixture and 2.5 unit of Taq polymerase (Takara, Japan). Then, the volume was adjusted with 50 μl of distilled water, and PCR was performed using a PCR instrument. PCR conditions were set to 94° C. for 4 minutes, 94° C. (30 seconds), 30 cycles of [52° C. (30 seconds), 72° C. (45 seconds)], and 72° C. for 10 minutes."}, "LEF": {"system": "LEF", "experiment": "RT-PCR mRNA expression of LEF", "format": "cell-based, human", "conditions": "phellandrene 20 μM, 24 hours, FIG. 6", "procedure": "as §2, §3"}, "β-catenin": {"system": "β-catenin", "experiment": "Western blot analysis of β-catenin", "format": "cell-based, human", "conditions": "phellandrene 20 μM, protein, (B) of FIG. 5", "procedure": "(§4) Protein quantification was performed by Bradford assay.\n(§5) 40 μg of the protein was electrophoresed on 10% SDS polyacrylamide gel and then transferred to nitrocellulose membranes. The protein was allowed to react with each of PKA Cα, β-catenin, β-actin, and GAPDH antibody (Cell Signaling Technology, Danvers, MA, USA). Each protein's signal was visualized with a chemiluminescent detection system (Amersham), and then the band's thickness was quantified using the Quantity One Analysis Software (Bio-Rad Laboratories)."}, "PKA Cα": {"system": "PKA Cα", "experiment": "Western blot analysis of PKA Cα", "format": "cell-based, human", "conditions": "phellandrene 20 μM, protein, (A) of FIG. 5", "procedure": "as §4, §5"}, "[3]": {"system": "WEHI-3 murine leukemia cells", "conditions": "in vitro, Lin et al. 2015; cited from earlier work"}, "VEGF [4]": {"system": "VEGF", "experiment": "RT-PCR mRNA expression of VEGF", "format": "cell-based, human", "conditions": "phellandrene 20 μM, 24 hours, FIG. 6", "procedure": "as §2, §3"}, "cAMP": {"system": "cAMP", "experiment": "cAMP complete ELISA", "format": "cell-based, human", "conditions": "phellandrene 20 μM, 24 hours, vs DMSO, FIG. 4", "procedure": "as §1"}, "IGF-1 [5]": {"system": "IGF-1", "experiment": "RT-PCR mRNA expression of IGF-1", "format": "cell-based, human", "conditions": "phellandrene 20 μM, 24 hours, FIG. 6", "procedure": "as §2, §3"}, "[6]": {"system": "human hair dermal papilla cells", "experiment": "MTT assay: cell viability and proliferation in human hair dermal papilla cells", "conditions": "FIG. 2", "method": "Human hair dermal papilla cells were purchased from PromoCell GmbH (Heidelberg, Germany). The human hair dermal papilla cells were cultured in an incubator at 37° C., 5% CO2 using HFDPC medium (PromoCell, Germany) with fetal bovine serum (FBS) and Dulbecco's modified Eagle's medium (DMEM; Gibco BRL, Gaithersburg, MD, USA). Due to the nature of the cells, cells at passages 2 to 5 were used for all experiments.\nThe human hair dermal papilla cells were dispensed into 24-well plates to 1×10^5 cells/well, and then cultured for 24 hours in an incubator at 37° C., 5% CO2 so that the cells are stabilized. Treatment with samples at respective concentrations (0, 10, 20, 50, 100, 200, 400 μg/ml) was performed and culture was performed for 24 hours. Then, treatment with 100 ul of 3-(4,5-dimethylthiazol-2-yl)-2,5-diphenyltetrazolium bromide (MTT; Sigma Aldrich, St. Louis, USA) reagent at a concentration of 200 mg/ml was performed and culture was performed again for 4 hours. After removing the medium, the precipitate (formazan) was dissolved in DMSO and the absorbance was measured at a wavelength of 540 nm. A proliferation rate thereof was evaluated based on the absorbance of a control group containing only DMSO.\nThe group containing only DMSO was set as a control group. […] Then, culture was performed for 24 hours, and cell viability was measured through an MTT assay."}, "[7]": {"system": "neutrophil migration and mast cell stabilization", "conditions": "Siqueira et al. 2016; cited from earlier work"}}, "data": [{"substance": "phellandrene", "values": [{"measurement": "increase in concentration of IGF-1", "setting": "IGF-1 [1]", "value": 18, "unit": "%"}, {"measurement": "increase in concentration of VEGF", "setting": "VEGF [2]", "value": 27, "unit": "%"}, {"measurement": "increase in mRNA expression of Cyc-D", "setting": "Cyc-D", "value": 250, "unit": "%"}, {"measurement": "increase in mRNA expression of LEF", "setting": "LEF", "value": 348, "unit": "%"}, {"measurement": "increase in expression of β-catenin in the cell nucleus", "setting": "β-catenin", "value": 30, "unit": "%"}, {"measurement": "increase in expression of PKA Cα", "setting": "PKA Cα", "value": 42, "unit": "%"}, {"measurement": "known physiological function: apoptosis in leukemia cells", "setting": "[3]", "value": "induce apoptosis in leukemia cells"}, {"measurement": "increase in mRNA expression of VEGF", "setting": "VEGF [4]", "value": 247, "unit": "%"}, {"measurement": "increase in cAMP concentration", "setting": "cAMP", "value": 30, "unit": "%"}, {"measurement": "increase in mRNA expression of IGF", "setting": "IGF-1 [5]", "value": 217, "unit": "%"}, {"measurement": "proliferation rate increase", "setting": "[6]; phellandrene 10 μM", "value": 10.8, "unit": "%"}, {"measurement": "proliferation rate increase", "setting": "[6]; phellandrene 20 μM", "value": 24, "unit": "%"}, {"measurement": "proliferation rate increase", "setting": "[6]; phellandrene 50 μM", "value": 18, "unit": "%"}, {"measurement": "known physiological function: anti-inflammatory", "setting": "[7]", "value": "serve as an anti-inflammatory agent"}]}]}
